Data from patent publication EP0292191A1, “2-(Substituted methyl)-1-alkylcarbapenem derivatives” (Merck & Co., Inc., priority 1987, dated 1988).

Experiments:
Conditions in all cases: relative to thienamycin (=1.0)
[1] = tested on: Dehydropeptidase-I (DHP-I); experiment: Dehydropeptidase-I susceptibility (method of Kropp et al.); type: in vitro ADME
Source text: Antibacterial compounds of Formula I are of the broad class known as carbapenems or 1-carbadethiapenems. Certain of these carbapenems are susceptible to attack by a renal enzyme known as dehydropeptidase (DHP). This attack or degradation may reduce the efficacy of the carbapenem antibacterial agent. Inhibitors of DHP and their use with carbapenem antibacterial agents are disclosed in the prior art. See European Patent Applications No. 79102616.4 filed July 24, 1979 (Publication No. 0 010 573); 79102615.6, filed July 24, 1979 (Publication No. 0 007 614); and 82107174.3, filed August 9, 1982 (Publication No. 0 072 014).
(§1) Antibacterial potencies were determined using standard agar disc diffusion assays and are reported relative to thienamycin (=1.0). Dehydropeptidase-I (DHP-I) susceptibilities were determined by the method of Kropp et al., Antimicrobial Agents Chemother., 22, 62-70 (1982), and are reported relative to thienamycin (=1.0).

Ps. aeruginosa = experiment: Agar disc-diffusion assay, relative antibacterial potency; type: cell-based
Experimental: (§2) The antibacterial activities of the compounds of this invention illustrated in the examples were determined using the following method.
(§3) Antibacterial activities were determined by the disc-diffusion assay described by Bauer et al., Amer. J. Clin. Pathol., 45, 493 (1966), except that an agar thickness of 0.2 cm was used. Thienamycin or imipenem was used as the internal standard. For maximum reproducibility, the inner, completely clear region of the zone of inhibition was measured. Inhibiting concentration at the edge of the zone was computed for each test compound using equation (3) (rearranged) reported by Humphrey and Lightbown in J. Gen. Microbiol., 7, 129 (1952), which takes into account differing molecular weights and resulting diffusion constants. Ratios of the geometric means of the inhibitory concentrations to that of thienamycin were determined for each test compound.
as §1

Enterobacter = experiment: as above; type: cell-based
Experimental: as §2, §3, §1

E. coli = experiment: as above; type: cell-based
Experimental: as §2, §3, §1

Klebsiella = experiment: as above; type: cell-based
Experimental: as §2, §3, §1

S. aureus = experiment: as above; type: cell-based
Experimental: as §2, §3, §1

Enterococcus = experiment: as above; type: cell-based
Experimental: as §2, §3, §1

Serratia = experiment: as above; type: cell-based
Experimental: as §2, §3, §1

Proteus (Ind. + and -) = experiment: as above; type: cell-based
Experimental: as §2, §3, §1

Row | Compound | DHP-I susceptibility [1] | Relative Antibacterial Potencies (Ps. aeruginosa) | Relative Antibacterial Potencies (Enterobacter) | Relative Antibacterial Potencies (E. coli) | Relative Antibacterial Potencies (Klebsiella) | Relative Antibacterial Potencies (S. aureus) | Relative Antibacterial Potencies (Enterococcus) | Relative Antibacterial Potencies (Serratia) | Relative Antibacterial Potencies (Proteus (Ind. + and -))
1 | C[C@@H](O)[C@H]1C(=O)N2C(C(=O)O)=C(COC(=O)N(C)C)[C@H](C)[C@H]12 [Example 7, Potassium (1S,1′R,5R,6S)-2-dimethylamino carbonyloxymethyl-6-(1′-hydroxyethyl)-1-methylcarbapen-2-em-3-carboxylate] | 0.29 | 0.04 | 0.8 | 0.6 | 0.4 | 1.4 | 1.2 | 1.4 | 11.3
2 | C[C@@H](O)[C@H]1C(=O)N2C(C(=O)O)=C(COC(N)=O)[C@H](C)[C@H]12 [Example 4, Potassium (1S,1′R,5R,6S)-2-aminocarbonyloxy methyl-6-(1′-hydroxyethyl)-1-methylcarbapen-2-em-3-carboxylate] | 0.39 | 0.4 | 22.6 | 6.1 | 7.0 | 0.9 | 5.7 | 32 | 14.9
3 | C[C@@H](O)[C@H]1C(=O)N2C(C(=O)O)=C(CN)[C@H](C)[C@H]12 [Example 9, (1S,1′R,5R,6S)-2-aminomethyl-6-(1′-hydroxyethyl)-1-methylcarbapen-2-em-3-carboxylic acid] | 0.06 | 0.4 | 0.3 | 0.2 | 0.2 | 0.6 | 0.3 | 0.2 | 0.2
4 | C[C@@H](O)[C@H]1C(=O)N2C(C(=O)O)=C(COC(=O)Nc3ccccc3)[C@H](C)[C@H]12 [Example 6, Potassium (1S,1′R,5R,6S)-2-phenylaminocarbonyloxymethyl-6-(1′-hydroxyethyl)-1-methylcarbapen-2-em-3-carboxylate] | 1.35 | 0.03 | 0.2 | 0.6 | 0.2 | 1.2 | 2.8 | 0.3 | 4.9
5 | C[C@@H](O)[C@H]1C(=O)N2C(C(=O)O)=C(CN=[N+]=[N-])[C@H](C)[C@H]12 [Example 3, Potassium (1S,1′R,5R,6S)-2-azidomethyl-6-(1′-hydroxyethyl)-1-methylcarbapen-2-em-3-carboxylate] | 7.29 | 0.06 | 11.3 | 9.2 | 4.3 | 1.4 | 2.0 | 22.6 | 29.9
6 | C[C@@H](O)[C@H]1C(=O)N2C(C(=O)[O-])=C(COC(=O)NCC[n+]3ccccc3)[C@H](C)[C@H]12 [Example 8, (1S,1′R,5R,6S)-6-(1′-hydroxyethyl)-1-methyl-2-(2˝-pyridiniumethylaminocarbonyloxymethyl)carbapen-2-em-3-carboxylic acid] | 0.05 | 0.33 | 2.1 | 0.93 | 1.1 | 0.87 | 2.3 | 2.1 | 2.5
7 | CC(=O)OCC1=C(C(=O)O)N2C(=O)[C@H]([C@@H](C)O)[C@H]2[C@H]1C [Example 2, Potassium (1S,1′R,5R,6S)-2-acetoxymethyl-6-(1′-hydroxyethyl)-1-methylcarbapen-2-em-3-carboxylate] | 0.52 | 0.09 | 7.0 | 4.0 | 2.5 | 0.7 | 2.8 | 12.1 | 27.9
8 | C[C@@H](O)[C@H]1C(=O)N2C(C(=O)O)=C(CO)[C@H](C)[C@H]12 [Example 1, Potassium (1S,1′R,5R,6S)-2-hydroxymethyl-6-(1′-hydroxyethyl)-1-methylcarbapen-2-em-3-carboxylate] | 0.76 | 0.2 | 3.7 | 2.3 | 2.0 | 0.4 | 1.0 | 4.3 | 3.0
9 | CNC(=O)OCC1=C(C(=O)O)N2C(=O)[C@H]([C@@H](C)O)[C@H]2[C@H]1C [Example 5, Potassium (1S,1′R,5R,6S)-2-methylaminocarbonyl oxymethyl-6-(1′-hydroxyethyl)-1-methylcarbapen-2-em-3-carboxylate] | 0.59 | 0.2 | 9.8 | 5.7 | 7.0 | 0.8 | 3.7 | 16 | 16
